The conditions of the data set: 308.15 K, 101.33 kPa, Liquid; for viscosity: Capillary tube (Ostwald / Ubbelohde) method; for speed of sound: Pulse-echo method; for mass density: Vibrating tube method.

± gives the expanded uncertainty stated by the source.

Usually viscosity stands for the internal friction of a fluid under shear. Broadly, the speed of sound is how fast a sound wave travels through the sample. A word on the mass density: it is the mass of a sample divided by its volume. As for `CCC(O)CO` (stereo not given) [1,2-butanediol], the viscosity is 30.29 ± 0.56 mPa·s, the speed of sound worked out at 1422.6 ± 3.7 m/s and the mass density came out at 988.25 ± 1.1 kg/m3.
Turning to `CC(O)CCO` (stereo not given) [1,3-butanediol], the viscosity is given as 54.24 ± 1.1 mPa·s, the speed of sound worked out at 1496 ± 3.2 m/s and the mass density amounted to 991.28 ± 0.75 kg/m3.
Consider `OCCCCO` [1,4-butanediol], for which the viscosity is on record as 47.38 ± 0.94 mPa·s, the speed of sound is 1577.8 ± 3.2 m/s and the mass density worked out at 1003.95 ± 0.76 kg/m3.
Regarding `CC(O)C(C)O` (stereo not given) [2,3-butanediol], the viscosity was 51.38 ± 1.1 mPa·s, the speed of sound came out at 1456.6 ± 3.7 m/s and the mass density is 990.72 ± 1.1 kg/m3.
On the same counts, the results for `O=C1CCCN1` [2-pyrrolidinone] are 8.922 ± 0.095 mPa·s, 1600 ± 3.3 m/s and 1097.14 ± 0.85 kg/m3.

Source of the values: the NIST ThermoML archive (doi:10.1016/j.jct.2012.08.026).
